Measurements taken from the supplement of paper PMC12533247.

What was measured:
[1] = system: HSV-1 K26-GFP infected 3D skin equivalent; test: % activity on HSV-1 GFP signal (0 = infected DMSO control, -100 = uninfected control); higher = higher signal (negative = inhibition / toxicity); conditions: time (h post infection): 48
Method: (§1)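 Triplicate dose-response (0.04 to 10 uM) of 11 top compounds in 3D bioprinted skin equivalents (submerged and ALI models) infected with GFP-HSV-1 K26 at MOI 0.1 and fixed at 48 hpi. GFP (virus) and tdTomato (fibroblast viability) signals are normalised to per-plate controls.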

[2] = system: HSV-1 K26-GFP infected primary human skin cells; test: % change of HSV-1 GFP signal vs untreated infected cells; higher = less antiviral inhibition; conditions: cell type: primary dermal fibroblasts, time (h post infection): 48
Method: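 2D primary donor-derived dermal fibroblasts infected with GFP-HSV-1 K26 at MOI 1, treated 1 h later with compound dilutions and read at 48 hpi on IncuCyte. GFP integrated intensity is normalised to mock-infected and untreated infected wells (% change; -100 = full inhibition).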

[3] = system: HSV-1 K26-GFP infected 3D skin equivalent; test: % change of tdTomato fibroblast signal relative to infected DMSO control; higher = higher signal (negative = inhibition / toxicity); conditions: time (h post infection): 48
Method: as §1

[4] = system: primary dermal fibroblasts; test: % change in live cells vs DMSO control; higher = less cytotoxic; conditions: time (h post treatment): 48
Method: (§2)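 Cytotoxicity in uninfected 2D primary donor keratinocytes (20 h post treatment) and fibroblasts (48 h post treatment), measured with NucSpot live/dead dyes on IncuCyte. Live cells are normalised to the 0.2% DMSO control and shown as % change. Three biological replicates for each of donors 3, 4 and 5.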

[5] = system: primary keratinocytes; test: as above; conditions: time (h post treatment): 20
Method: as §2

Cc1cccc(C)c1N(CC(=O)Nc1ccc(-c2ncon2)cc1)C(=O)C1CCS(=O)(=O)CC1 [Amenamevir]
Conditions	% activity on HSV-1 GFP signal [%]	% change in live cells [%]	% change of HSV-1 GFP signal [%]	% change of tdTomato fibroblast signal [%]
[1], 0.041152 µM, model: ALI	-20.3	–	–	–
[1], 0.041152 µM, model: submerged	2.22	–	–	–
[1], 0.123457 µM, model: ALI	-40.4	–	–	–
[1], 0.123457 µM, model: submerged	-17.6	–	–	–
[1], 0.37037 µM, model: ALI	-99.3	–	–	–
[1], 0.37037 µM, model: submerged	-61.9	–	–	–
[1], 1.111111 µM, model: ALI	-108	–	–	–
[1], 1.111111 µM, model: submerged	-84.6	–	–	–
[1], 3.33333 µM, model: ALI	-107	–	–	–
[1], 3.33333 µM, model: submerged	-89.2	–	–	–
[1], 10 µM, model: ALI	-112	–	–	–
[1], 10 µM, model: submerged	-85.3	–	–	–
[2], 0.001 µM, donor: 3	–	–	-1.82	–
[2], 0.001 µM, donor: 4	–	–	-1.13	–
[2], 0.003 µM, donor: 3	–	–	-1.99	–
[2], 0.003 µM, donor: 4	–	–	-8.69	–
[2], 0.0091 µM, donor: 3	–	–	-11	–
[2], 0.0091 µM, donor: 4	–	–	-24.4	–
[2], 0.0274 µM, donor: 3	–	–	-15.9	–
[2], 0.0274 µM, donor: 4	–	–	-37.9	–
[2], 0.0823 µM, donor: 3	–	–	-29.7	–
[2], 0.0823 µM, donor: 4	–	–	-61.9	–
[2], 0.2469 µM, donor: 3	–	–	-63.1	–
[2], 0.2469 µM, donor: 4	–	–	-76.9	–
[2], 0.7407 µM, donor: 3	–	–	-89.6	–
[2], 0.7407 µM, donor: 4	–	–	-84.4	–
[2], 2.2222 µM, donor: 3	–	–	-98.8	–
[2], 2.2222 µM, donor: 4	–	–	-94.5	–
[2], 6.6667 µM, donor: 3	–	–	-99.52	–
[2], 6.6667 µM, donor: 4	–	–	-99	–
[2], 20 µM, donor: 3	–	–	-99.36	–
[2], 20 µM, donor: 4	–	–	-99.59	–
[3], 0.041152 µM, model: ALI	–	–	–	0.354
[3], 0.041152 µM, model: submerged	–	–	–	12
[3], 0.123457 µM, model: ALI	–	–	–	-2.14
[3], 0.123457 µM, model: submerged	–	–	–	-5.09
[3], 0.37037 µM, model: ALI	–	–	–	-5.49
[3], 0.37037 µM, model: submerged	–	–	–	-8.61
[3], 1.111111 µM, model: ALI	–	–	–	-6.26
[3], 1.111111 µM, model: submerged	–	–	–	-5
[3], 3.33333 µM, model: ALI	–	–	–	-5.93
[3], 3.33333 µM, model: submerged	–	–	–	2.99
[3], 10 µM, model: ALI	–	–	–	-8.92
[3], 10 µM, model: submerged	–	–	–	5.91
[4], 0.082305 µM, donor: 3	–	-6.67	–	–
[4], 0.082305 µM, donor: 4	–	5	–	–
[4], 0.082305 µM, donor: 5	–	2.33	–	–
[4], 0.246914 µM, donor: 3	–	-7	–	–
[4], 0.246914 µM, donor: 4	–	4.67	–	–
[4], 0.246914 µM, donor: 5	–	4.33	–	–
[4], 0.740741 µM, donor: 3	–	-7.33	–	–
[4], 0.740741 µM, donor: 4	–	2.67	–	–
[4], 0.740741 µM, donor: 5	–	3	–	–
[4], 2.22222 µM, donor: 3	–	-6	–	–
[4], 2.22222 µM, donor: 4	–	5	–	–
[4], 2.22222 µM, donor: 5	–	0	–	–
[4], 6.66667 µM, donor: 3	–	-6	–	–
[4], 6.66667 µM, donor: 4	–	6.67	–	–
[4], 6.66667 µM, donor: 5	–	-3	–	–
[4], 20 µM, donor: 3	–	-6.33	–	–
[4], 20 µM, donor: 4	–	4.67	–	–
[4], 20 µM, donor: 5	–	-4.67	–	–
[4], 60 µM, donor: 3	–	-6.33	–	–
[4], 60 µM, donor: 4	–	0	–	–
[4], 60 µM, donor: 5	–	-23.3	–	–
[5], 0.082305 µM, donor: 3	–	-5	–	–
[5], 0.082305 µM, donor: 4	–	8.33	–	–
[5], 0.082305 µM, donor: 5	–	-7.67	–	–
[5], 0.246914 µM, donor: 3	–	-8.33	–	–
[5], 0.246914 µM, donor: 4	–	-12.7	–	–
[5], 0.246914 µM, donor: 5	–	-7	–	–
[5], 0.740741 µM, donor: 3	–	-12	–	–
[5], 0.740741 µM, donor: 4	–	-6	–	–
[5], 0.740741 µM, donor: 5	–	-5.67	–	–
[5], 2.22222 µM, donor: 3	–	-3.33	–	–
[5], 2.22222 µM, donor: 4	–	-3.33	–	–
[5], 2.22222 µM, donor: 5	–	-5.33	–	–
[5], 6.66667 µM, donor: 3	–	1.67	–	–
[5], 6.66667 µM, donor: 4	–	-36.7	–	–
[5], 6.66667 µM, donor: 5	–	-1.67	–	–
[5], 20 µM, donor: 3	–	-32.7	–	–
[5], 20 µM, donor: 4	–	-42	–	–
[5], 20 µM, donor: 5	–	5.67	–	–
[5], 60 µM, donor: 3	–	-70.3	–	–
[5], 60 µM, donor: 4	–	-63.3	–	–
[5], 60 µM, donor: 5	–	-5	–	–

COc1ccc(-c2nc(N3CCOCC3)c3sc(CN(C)c4ncc(C(=O)NO)cn4)cc3n2)cn1 [Fimepinostat]
Conditions	% activity on HSV-1 GFP signal [%]	% change in live cells [%]	% change of HSV-1 GFP signal [%]	% change of tdTomato fibroblast signal [%]
[1], 0.041152 µM, model: ALI	-85.1	–	–	–
[1], 0.041152 µM, model: submerged	2.37	–	–	–
[1], 0.123457 µM, model: ALI	-97.4	–	–	–
[1], 0.123457 µM, model: submerged	6.63	–	–	–
[1], 0.37037 µM, model: ALI	-79.6	–	–	–
[1], 0.37037 µM, model: submerged	-1.58	–	–	–
[1], 1.111111 µM, model: ALI	-64.2	–	–	–
[1], 1.111111 µM, model: submerged	-31.5	–	–	–
[1], 3.33333 µM, model: ALI	-78.3	–	–	–
[1], 3.33333 µM, model: submerged	-75.6	–	–	–
[1], 10 µM, model: ALI	-88.6	–	–	–
[1], 10 µM, model: submerged	-87.4	–	–	–
[2], 0.003 µM, donor: 3	–	–	27.2	–
[2], 0.003 µM, donor: 4	–	–	-1.5	–
[2], 0.0091 µM, donor: 3	–	–	32.4	–
[2], 0.0091 µM, donor: 4	–	–	-0.607	–
[2], 0.0274 µM, donor: 3	–	–	30.4	–
[2], 0.0274 µM, donor: 4	–	–	-1.06	–
[2], 0.0823 µM, donor: 3	–	–	27.5	–
[2], 0.0823 µM, donor: 4	–	–	3.49	–
[2], 0.2469 µM, donor: 3	–	–	29.4	–
[2], 0.2469 µM, donor: 4	–	–	-2.47	–
[2], 0.7407 µM, donor: 3	–	–	21.4	–
[2], 0.7407 µM, donor: 4	–	–	-9.92	–
[2], 2.2222 µM, donor: 3	–	–	14.6	–
[2], 2.2222 µM, donor: 4	–	–	-5.85	–
[2], 6.6667 µM, donor: 3	–	–	11.3	–
[2], 6.6667 µM, donor: 4	–	–	-11.4	–
[2], 20 µM, donor: 3	–	–	8.87	–
[2], 20 µM, donor: 4	–	–	-9.02	–
[2], 60 µM, donor: 3	–	–	7.95	–
[2], 60 µM, donor: 4	–	–	-4.24	–
[3], 0.041152 µM, model: ALI	–	–	–	-7.82
[3], 0.041152 µM, model: submerged	–	–	–	12.3
[3], 0.123457 µM, model: ALI	–	–	–	-14
[3], 0.123457 µM, model: submerged	–	–	–	9.59
[3], 0.37037 µM, model: ALI	–	–	–	-3.36
[3], 0.37037 µM, model: submerged	–	–	–	12.7
[3], 1.111111 µM, model: ALI	–	–	–	-5.66
[3], 1.111111 µM, model: submerged	–	–	–	8.55
[3], 3.33333 µM, model: ALI	–	–	–	-20.2
[3], 3.33333 µM, model: submerged	–	–	–	-1.39
[3], 10 µM, model: ALI	–	–	–	-11
[3], 10 µM, model: submerged	–	–	–	-3.36
[4], 0.082305 µM, donor: 3	–	-29.3	–	–
[4], 0.082305 µM, donor: 4	–	-13	–	–
[4], 0.082305 µM, donor: 5	–	6.67	–	–
[4], 0.246914 µM, donor: 3	–	-34.3	–	–
[4], 0.246914 µM, donor: 4	–	-33.3	–	–
[4], 0.246914 µM, donor: 5	–	-8.67	–	–
[4], 0.740741 µM, donor: 3	–	-41.3	–	–
[4], 0.740741 µM, donor: 4	–	-44	–	–
[4], 0.740741 µM, donor: 5	–	-23.3	–	–
[4], 2.22222 µM, donor: 3	–	-56	–	–
[4], 2.22222 µM, donor: 4	–	-67.3	–	–
[4], 2.22222 µM, donor: 5	–	-56.3	–	–
[4], 6.66667 µM, donor: 3	–	-61	–	–
[4], 6.66667 µM, donor: 4	–	-60.3	–	–
[4], 6.66667 µM, donor: 5	–	-60	–	–
[4], 20 µM, donor: 3	–	-64.7	–	–
[4], 20 µM, donor: 4	–	-56.3	–	–
[4], 20 µM, donor: 5	–	-68	–	–
[4], 60 µM, donor: 3	–	-75	–	–
[4], 60 µM, donor: 4	–	-60.3	–	–
[4], 60 µM, donor: 5	–	-79.3	–	–
[5], 0.082305 µM, donor: 3	–	-23.3	–	–
[5], 0.082305 µM, donor: 4	–	-5.33	–	–
[5], 0.082305 µM, donor: 5	–	-8	–	–
[5], 0.246914 µM, donor: 3	–	-39.7	–	–
[5], 0.246914 µM, donor: 4	–	-20.7	–	–
[5], 0.246914 µM, donor: 5	–	-13.7	–	–
[5], 0.740741 µM, donor: 3	–	-38.7	–	–
[5], 0.740741 µM, donor: 4	–	-34.3	–	–
[5], 0.740741 µM, donor: 5	–	-38	–	–
[5], 2.22222 µM, donor: 3	–	-41.3	–	–
[5], 2.22222 µM, donor: 4	–	-59	–	–
[5], 2.22222 µM, donor: 5	–	-58.7	–	–
[5], 6.66667 µM, donor: 3	–	-42.3	–	–
[5], 6.66667 µM, donor: 4	–	-79.3	–	–
[5], 6.66667 µM, donor: 5	–	-67	–	–
[5], 20 µM, donor: 3	–	-76	–	–
[5], 20 µM, donor: 4	–	-99.7	–	–
[5], 20 µM, donor: 5	–	-80.7	–	–
[5], 60 µM, donor: 3	–	-95.3	–	–
[5], 60 µM, donor: 4	–	-94.33	–	–
[5], 60 µM, donor: 5	–	-95.33	–	–
